Each compound was assayed on Rattus norvegicus (assay: Inhibition of prolactin secretion in rat assessed as serum prolactin level at 10 ug, ip after 1 hr by radioimmunoassay relative to control).
Format: functional

For `CC(C)[C@H]1C(=O)N2CCC[C@H]2[C@]2(O)O[C@](NC(=O)[C@@H]3C=C4c5cccc6[nH]cc(c56)C[C@H]4N(C)C3)(C(C)C)C(=O)N12` [ERGOCORNINE], the “inhibition (INH)” value was 60%.

What follows are compounds tested on Rattus norvegicus (assay: Inhibition of prolactin secretion in rat assessed as serum prolactin level at 1 mg, ip after 1 hr by radioimmunoassay relative to control).

In order of rising “inhibition (INH)” value:
1. Br.CNC1CCc2c(O)ccc(O)c2C1 (stereo not drawn)  -19%
2. Br.NC1CCc2c(O)ccc(O)c2C1 (stereo not drawn)  -9%
3. Br.COc1ccc(OC)c2c1CCC(N(C)CCCC#N)C2 (stereo not drawn)  -4%
4. COc1ccc(OC)c2c1CCC(N(C)C)C2.Cl (stereo not drawn)  -3%
5. COc1ccc(OC)c2c1CCC(N)C2 (stereo not drawn)  3%
6. CNC1CCc2c(OC)ccc(OC)c2C1 (stereo not drawn)  5%
7. CCN(CC)C(=O)CCN(C)CCc1cc(OC)c(C)cc1OC  10%
8. Br.CN(CCCC#N)CCc1c[nH]c2ccccc12  12%
9. CN(CCCC#N)C1CCc2ccccc2C1 (stereo not drawn)  24%
10. Br.CN(C)C1CCc2c(O)ccc(O)c2C1 (stereo not drawn)  25%
11. CN1CCc2cccc3c2[C@H]1Cc1ccc(O)c(O)c1-3 [APOMORPHINE]  29%
12. CN(C)C1CCc2c(ccc(O)c2O)C1 (stereo not drawn)  68%
